Measurements reported in patent US20260042731A1, “(2,4-DICHLOROPHENOXY)ACETIC ACID ANALOGS” (CORTEVA AGRISCIENCE LLC, priority 2022, published 2026).
Read-outs that look alike come from different tables or passages of the source.

Tests used:
[1] = test system: Amaranthus rudis (AMATA), tall water hemp; experiment: Postemergence herbicide evaluation, growth of Amaranthus rudis (AMATA); format: in vivo; settings: Amaranthus tuberculatus, post-emergence, read-out: Ave. AMATA, percent reduction in plant size relative to the untreated control; for pest or weed control at 280 g/ha: 280 g ae/ha; for pest or weed control at 560 g/ha: 560 g ae/ha
[2] = test system: Ambrosia artemisiifolia (AMBEL), common ragweed; experiment: Postemergence herbicide evaluation, growth of Ambrosia artemisiifolia (AMBEL); format: in vivo; settings: Ambrosia artemisiifolia, post-emergence, read-out: AVE. AMBEL, percent reduction in plant size relative to the untreated control; for pest or weed control at 280 g/ha: 280 g ae/ha; for pest or weed control at 560 g/ha: 560 g ae/ha
[3] = test system: Abutilon theophrasti (ABUTH), velvetleaf; experiment: Postemergence herbicide evaluation, growth of Abutilon theophrasti (ABUTH); format: in vivo; settings: Abutilon theophrasti, post-emergence, read-out: AVE. ABUTH, percent reduction in plant size relative to the untreated control; for pest or weed control at 280 g/ha: 280 g ae/ha; for pest or weed control at 560 g/ha: 560 g ae/ha
[4] = test system: Chenopodium album (CHEAL), common lambsquarters; experiment: Postemergence herbicide evaluation, growth of Chenopodium album (CHEAL); format: in vivo; settings: Chenopodium album, post-emergence, read-out: Ave. CHEAL, percent reduction in plant size relative to the untreated control; for pest or weed control at 280 g/ha: 280 g ae/ha; for pest or weed control at 560 g/ha: 560 g ae/ha
[5] = test system: glyphosate resistant Conyza canadensis (L.) (ERICA), horseweed; experiment: Postemergence herbicide evaluation, growth of Conyza canadensis (ERICA); format: in vivo; settings: Erigeron canadensis, post-emergence, read-out: Ave. ERICA, percent reduction in plant size relative to the untreated control; for pest or weed control at 280 g/ha: 280 g ae/ha; for pest or weed control at 560 g/ha: 560 g ae/ha
[6] = Volatility of compounds measured by thermogravimetric analysis (TGA); format: physicochemical
[7] = test system: weeds ABUTH, AMATA, AMBEL, CHEAL, ERICA; experiment: Postemergence herbicide evaluation, overall average % weed control (ABUTH, AMATA, AMBEL, CHEAL, ERICA); format: in vivo; settings: post-emergence, read-out: Overall Ave % Weed Control; for pest or weed control at 280 g/ha: 280 g ae/ha; for pest or weed control at 560 g/ha: 560 g ae/ha

| SMILES | pest or weed control at 280 g/ha ([1]; 168 h, 7 DAA) | pest or weed control at 560 g/ha ([1]; 168 h, 7 DAA) | pest or weed control at 280 g/ha ([1]; 336 h, 14 DAA) | pest or weed control at 560 g/ha ([1]; 336 h, 14 DAA) | pest or weed control at 280 g/ha ([1]; 504 h, 21 DAA) | pest or weed control at 560 g/ha ([1]; 504 h, 21 DAA) | pest or weed control at 280 g/ha ([2]; 168 h, 7 DAA) | pest or weed control at 560 g/ha ([2]; 168 h, 7 DAA) | pest or weed control at 280 g/ha ([2]; 336 h, 14 DAA) | pest or weed control at 560 g/ha ([2]; 336 h, 14 DAA) | pest or weed control at 280 g/ha ([2]; 504 h, 21 DAA) | pest or weed control at 560 g/ha ([2]; 504 h, 21 DAA) | pest or weed control at 280 g/ha ([3]; 168 h, 7 DAA) | pest or weed control at 560 g/ha ([3]; 168 h, 7 DAA) | pest or weed control at 280 g/ha ([3]; 336 h, 14 DAA) | pest or weed control at 560 g/ha ([3]; 336 h, 14 DAA) | pest or weed control at 280 g/ha ([3]; 504 h, 21 DAA) | pest or weed control at 560 g/ha ([3]; 504 h, 21 DAA) | pest or weed control at 280 g/ha ([4]; 168 h, 7 DAA) | pest or weed control at 560 g/ha ([4]; 168 h, 7 DAA) | further results |
| --- | --- | --- | --- | --- | --- | --- | --- | --- | --- | --- | --- | --- | --- | --- | --- | --- | --- | --- | --- | --- | --- |
| C/C(=N\OC(=O)COc1ccc(Cl)cc1Cl)c1ccccc1Cl [Compound A24] | 82.5% | 72.5% | 92.5% | 90% | 77.5% | 72.5% | 70% | 75% | 75% | 75% | 97.5% | 100% | 62.5% | 57.5% | 77.5% | 67.5% | 80% | 85% | 75% | 77.5% | pest or weed control at 280 g/ha ([4]; 336 h, 14 DAA): 91.5%; pest or weed control at 560 g/ha ([4]; 336 h, 14 DAA): 95%; pest or weed control at 280 g/ha ([4]; 504 h, 21 DAA): 98.5%; pest or weed control at 560 g/ha ([4]; 504 h, 21 DAA): 94.5%; pest or weed control at 280 g/ha ([5]; 168 h, 7 DAA): 80%; pest or weed control at 560 g/ha ([5]; 168 h, 7 DAA): 75%; pest or weed control at 280 g/ha ([5]; 336 h, 14 DAA): 98.5%; pest or weed control at 560 g/ha ([5]; 336 h, 14 DAA): 91.5%; pest or weed control at 280 g/ha ([5]; 504 h, 21 DAA): 94.5%; pest or weed control at 560 g/ha ([5]; 504 h, 21 DAA): 97%; TGA Data (rate of weight loss, volatility) [6]: 0.03549 µg/min; pest or weed control at 280 g/ha ([7]; 168 h, 7 DAA): 74%; pest or weed control at 560 g/ha ([7]; 168 h, 7 DAA): 71.5%; pest or weed control at 280 g/ha ([7]; 336 h, 14 DAA): 87%; pest or weed control at 560 g/ha ([7]; 336 h, 14 DAA): 83.8%; pest or weed control at 280 g/ha ([7]; 504 h, 21 DAA): 89.6%; pest or weed control at 560 g/ha ([7]; 504 h, 21 DAA): 89.8% |
| O=C(COc1ccc(Cl)cc1Cl)O/N=C1\CCCc2ccccc21 [Compound A25] | 65% | 57.5% | 80% | 82.5% | 50% | 64% | 70% | 80% | 62.5% | 67.5% | 87.5% | 82.5% | 27.5% | 30% | 22.5% | 27.5% | 17.5% | 30% | 72.5% | 72.5% | pest or weed control at 280 g/ha ([4]; 336 h, 14 DAA): 65%; pest or weed control at 560 g/ha ([4]; 336 h, 14 DAA): 92.5%; pest or weed control at 280 g/ha ([4]; 504 h, 21 DAA): 75%; pest or weed control at 560 g/ha ([4]; 504 h, 21 DAA): 75%; pest or weed control at 280 g/ha ([5]; 168 h, 7 DAA): 60%; pest or weed control at 560 g/ha ([5]; 168 h, 7 DAA): 72.5%; pest or weed control at 280 g/ha ([5]; 336 h, 14 DAA): 83.5%; pest or weed control at 560 g/ha ([5]; 336 h, 14 DAA): 77.5%; pest or weed control at 280 g/ha ([5]; 504 h, 21 DAA): 67.5%; pest or weed control at 560 g/ha ([5]; 504 h, 21 DAA): 99%; TGA Data (rate of weight loss, volatility) [6]: 0.8976 µg/min; pest or weed control at 280 g/ha ([7]; 168 h, 7 DAA): 59%; pest or weed control at 560 g/ha ([7]; 168 h, 7 DAA): 62.5%; pest or weed control at 280 g/ha ([7]; 336 h, 14 DAA): 62.7%; pest or weed control at 560 g/ha ([7]; 336 h, 14 DAA): 69.5%; pest or weed control at 280 g/ha ([7]; 504 h, 21 DAA): 59.5%; pest or weed control at 560 g/ha ([7]; 504 h, 21 DAA): 70.1% |
